Data from article PMC3681492, “Identification and Characterization of a Novel Chemotype MEK Inhibitor Able to Alter the Phosphorylation State of MEK1/2” (Oncotarget, 2012).

Columns and labels:
MEK1/2 = experiment: Competitive pull-down with JTP-74100-conjugated resin from HT-29 cytosolic fraction; assay type: binding, human; conditions: 46-kDa band on SDS-PAGE
HT-29 cells [1] = experiment: Growth inhibition of HT-29 cells by [3H]-TdR incorporation; assay type: cell-based; conditions: Homo sapiens, [3H]-TdR incorporation during last 6 h of 3-day culture, read-out: growth inhibitory activity (IC50)
Experimental: HT-29 cells were cultured in McCoy's 5a medium supplemented with 10% (v/v) fetal bovine serum and antibiotics. ACHN and HEK293T cells were maintained in Dulbecco's modified Eagle's medium supplemented with 10% (v/v) fetal bovine serum and antibiotics in a humidified CO2 incubator. The growth inhibitory activities of compounds toward HT-29 cells were determined by [^3H]-TdR incorporation for the last 6 h of a 3-day culture period. […] The lysed cells were then homogenized by 20 strokes of a loose-fitting Dounce homogenizer and centrifuged for 6 min at 4,300×g to separate the nuclei from the cytoplasmic fraction. The cytoplasmic fraction was ultracentrifuged for 1 h at 150,000×g and the supernatant was dialyzed against a buffer containing 20 mM HEPES (pH 7.9), 20% (v/v) glycerol, 0.1 M KCl, 0.2 mM EDTA, 0.5 mM PMSF and 0.5 mM DTT for 5 h at 4°C. After centrifugation for 20 min at 15,000×g, the supernatant was collected as the cytosolic fraction.

[2] = test system: HT-29 cells and ACHN cells; experiment: Western blot of downstream signaling molecules (c-Myc, cyclin D1, p15INK4b, p27KIP1); assay type: cell-based, human; conditions: 24 h treatment
Experimental: (§1) Cultured cells were treated with various compounds and then lysed in lysis buffer (50 mM Tris-HCl pH 7.4, 150 mM NaCl, 1 mM EGTA, 1 mM Na3Vo4, 1% Triton X-100 and EDTA-free protease inhibitor cocktail). The cell lysates were collected and centrifuged, and the supernatants were subjected to SDS-PAGE. After the electrophoresis, the proteins were transferred onto PVDF membranes at 1 mA/cm^2 for 1 h. The membranes were incubated in blocking solution (Blockace; Nacalai Tesque, Kyoto, Japan) and washed with PBS containing 0.1% Tween 20 (PBS/T). The membranes were then incubated with the primary antibody, washed three times with PBS/T and incubated with the secondary antibody. After washing with PBS/T, the membranes were incubated with ECL-Plus or ECL-Advanced western blot reagents (GE Healthcare, Little Chalfont, Buckinghamshire, UK) for 5 min, exposed to ECL Hyperfilm and visualized using a LAS3000 imager (Fujifilm).
Supplemental Table: Identif ied Peptide Sequences of 46 kDa Proteins.
ACCESSION Start - End Obsrved Mr(expt) Mr(calc) Sequence
Supp lemental Figure: Alterations of downstream signaling molecules in cancer cells by
(A, B) HT-29 cells (A) and ACHN cells (B) were treated with the
indicated concentrations of each compound for 24 h,same as the experiment of F ig u re 3A. And
the cell lysates were analyzed by western blotting using antibodies specific to c-M yc (Upstate […]

various cancer cells = experiment: Western blot of MEK and ERK phosphorylation in various cancer cell lines; assay type: cell-based; conditions: 2 h
Experimental: as §1

c-Raf = c-Raf (Homo sapiens, UniProt P04049); experiment: Raf/MBP kinase assay, c-Raf
c-Raf, sequence (P04049 306-648): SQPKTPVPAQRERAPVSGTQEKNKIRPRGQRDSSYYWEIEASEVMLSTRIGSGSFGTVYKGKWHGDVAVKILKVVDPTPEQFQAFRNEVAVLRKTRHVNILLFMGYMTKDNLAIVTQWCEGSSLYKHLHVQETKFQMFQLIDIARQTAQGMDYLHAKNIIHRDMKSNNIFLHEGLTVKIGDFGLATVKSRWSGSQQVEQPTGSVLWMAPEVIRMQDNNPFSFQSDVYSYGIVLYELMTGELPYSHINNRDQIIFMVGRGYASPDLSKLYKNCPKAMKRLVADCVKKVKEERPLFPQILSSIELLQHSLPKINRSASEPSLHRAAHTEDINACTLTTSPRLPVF

Raf kinase = Raf kinase activity, phosphorylation of MBP; conditions: for phosphorylation of the Raf kinase substrate MBP: at concentrations below 10 μM
[3] = cited from earlier work
Inactive u-MEK (K97R) = Inactive u-MEK (K97R) (Homo sapiens, UniProt Q02750, K97R); experiment: Temperature-dependent CD analysis of u-MEK; conditions: 10 μM compound, 3 μM u-MEK; u-MEK alone 50.2 °C
ACHN cells = experiment: Western blot of MEK and ERK phosphorylation in ACHN cells; assay type: cell-based, human; conditions: ACHN cells (K-Ras mutated, B-Raf unmutated), 24 h
Experimental: as §1

HT-29 cells [4] = experiment: Western blot of MEK and ERK phosphorylation in HT-29 cells; assay type: cell-based, human; conditions: for MEK phosphorylation status after pulse treatment: 2 h treatment then washout
[5] = parameters: method as in PMID 22805291; conditions: orally administered, cancer patients, phase I study; cited from earlier work
p-MEK1 = target: T1, p-MEK1 (Homo sapiens, UniProt Q02750); experiment: Kinetic (double-reciprocal) analysis of MEK inhibition in the MEK-ERK reaction; assay type: biochemical; conditions: p-MEK-ATP complex, double-reciprocal plots vs ATP
T1 construct: purchased Upstate Technology (Waltham, MA)

B-Raf = B-Raf (Homo sapiens, UniProt P15056, V600E); experiment: biochemical
B-Raf, sequence (P15056 whole entry V600E): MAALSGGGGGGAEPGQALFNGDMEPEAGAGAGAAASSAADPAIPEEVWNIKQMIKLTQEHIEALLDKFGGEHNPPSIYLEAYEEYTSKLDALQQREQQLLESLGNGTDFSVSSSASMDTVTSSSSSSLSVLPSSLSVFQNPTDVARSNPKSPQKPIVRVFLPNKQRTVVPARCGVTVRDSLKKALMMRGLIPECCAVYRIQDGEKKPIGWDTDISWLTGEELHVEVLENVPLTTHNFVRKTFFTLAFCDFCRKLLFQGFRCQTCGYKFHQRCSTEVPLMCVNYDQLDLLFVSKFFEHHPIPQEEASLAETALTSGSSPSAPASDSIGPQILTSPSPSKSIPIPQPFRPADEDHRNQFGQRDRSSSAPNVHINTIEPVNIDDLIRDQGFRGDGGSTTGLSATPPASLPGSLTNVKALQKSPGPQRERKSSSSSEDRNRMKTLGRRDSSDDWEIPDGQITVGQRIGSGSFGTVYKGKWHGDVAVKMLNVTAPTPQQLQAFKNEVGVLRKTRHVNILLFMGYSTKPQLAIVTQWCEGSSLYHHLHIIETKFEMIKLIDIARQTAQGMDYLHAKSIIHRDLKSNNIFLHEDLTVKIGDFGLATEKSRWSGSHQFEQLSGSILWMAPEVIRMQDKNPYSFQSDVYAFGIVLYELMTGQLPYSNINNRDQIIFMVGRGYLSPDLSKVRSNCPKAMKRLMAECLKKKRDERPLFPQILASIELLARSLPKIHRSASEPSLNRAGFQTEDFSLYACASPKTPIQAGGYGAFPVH

Compound: Cn1c(=O)cc(Nc2ccc(I)cc2F)c2c(=O)n(C3CC3)c(=O)n(-c3cccc(NS(C)(=O)=O)c3)c21 [JTP-70945]
- concentration needed to clearly compete with JTP-74100-immobilized resin for binding to MEK (MEK1/2): above 10 μM
- IC50 (HT-29 cells [1]): 0.39 nM

Compound: N#CC(=C(/N)Sc1ccccc1N)/C(C#N)=C(\N)Sc1ccccc1N [U0126, reference compound]
- concentration needed to clearly compete with JTP-74100-immobilized resin for binding to MEK (MEK1/2): 100 µM

Compound: CCCCC(=O)NCCC(=O)Nc1cccc(-n2c(=O)n(C3CC3)c(=O)c3c(Nc4ccccc4F)n(C)c(=O)c(C)c32)c1 [pentanoyl JTP-74099]
- IC50 (HT-29 cells [1]): 840 nM

Compound: CC(=O)Nc1cccc(-n2c(=O)n(C3CC3)c(=O)c3c(Nc4ccc(I)cc4F)n(C)c(=O)c(C)c32)c1 [JTP-74057]
- concentration at which accumulation of p15INK4b and p27KIP1 and decrease of c-Myc and Cyclin D1 were observed [2]: 1 nM
- p-MEK levels in HCT-15, LS-174T, T84 and LoVo cells (various cancer cells; 100 nM): did not decrease or decrease to a lesser extent
- p-MEK levels in HT-29, COLO-205, HCT-116, SW480 and SW620 cells (various cancer cells; 100 nM (HT-29 10 nM)): decreased
- ERK phosphorylation in various cancer cell lines (various cancer cells; 100 nM (HT-29 10 nM), 10 cell lines): efficiently inhibited in almost all cell lines, except for COLO-320DM
- IC50 (c-Raf): > 10000 nM
- IC50 (HT-29 cells [1]): 0.57 nM
- phosphorylation of the Raf kinase substrate MBP (Raf kinase): not inhibited
- ERK phosphorylation in grafted cancer tissues ([3]; animals, after oral administration): inhibited ERK phosphorylation
- half-life in the blood ([3]; in vivo, po): long half-life
- Tm of u-MEK with compound (CD) (Inactive u-MEK (K97R)): 57.5 °C
- accumulation of p-MEK (ACHN cells): did not significantly, or slightly if any, induce accumulation of p-MEK
- time at which p-MEK level was decreased (HT-29 cells [4]; 10 nM): ≤ 15 min
- time at which p-MEK was almost ablated (HT-29 cells [4]; 10 nM): 30 min
- MEK phosphorylation status after pulse treatment (HT-29 cells [4]): disappearance of p-MEK was sustained for a considerable period
- ERK phosphorylation (HT-29 cells [4]; 24 h): inhibited ERK phosphorylation
- p-MEK level (HT-29 cells [4]; 24 h): decreased the p-MEK level
- t1/2 [5]: about 4 days
- Ki' (MEK/ATP vs. compound) (p-MEK1): 290 ± 80 nM
- IC50 (B-Raf): > 10000 nM

Compound: O=C(NOC[C@H](O)CO)c1ccc(F)c(F)c1Nc1ccc(I)cc1F [PD0325901, reference compound]
- concentration at which accumulation of p15INK4b and p27KIP1 and decrease of c-Myc and Cyclin D1 were observed [2]: 10 nM
- IC50 (HT-29 cells [1]): 3.4 nM
- phosphorylation of the Raf kinase substrate MBP (Raf kinase): not inhibited
- accumulation of p-MEK (ACHN cells): induced significant accumulation of p-MEK
- time for p-ERK level to return to nearly normal level after removal (HT-29 cells [4]; 100 nM for 2 h then washout): ≤ 1 h
- MEK phosphorylation status after pulse treatment (HT-29 cells [4]): did not affect the MEK phosphorylation status
- ERK phosphorylation (HT-29 cells [4]; 24 h): inhibited ERK phosphorylation

Compound: CCCCC(=O)NCCC(=O)Nc1cccc(-n2c(=O)n(C3CC3)c(=O)c3c(Nc4ccc(I)cc4F)n(C)c(=O)c(C)c32)c1 [pentanoyl JTP-74100]
- IC50 (HT-29 cells [1]): 2.1 nM

Compound: CNC(=O)c1cc(Oc2ccc(NC(=O)Nc3ccc(Cl)c(C(F)(F)F)c3)cc2)ccn1 [BAY 43-9006]
- concentration that inhibited Raf kinase activity (Raf kinase; same conditions as Raf/MBP assay, data not shown): 0.1 µM

Compound: COc1ccccc1Nc1cc(=O)n(C)c2c1c(=O)n(-c1ccccc1)c(=O)n2-c1ccccc1 [JTP-65634]
- concentration needed to clearly compete with JTP-74100-immobilized resin for binding to MEK (MEK1/2): > 100 µM
- IC50 (HT-29 cells [1]): > 10000 nM
